Where two headings read alike, the source gives them in different places. Where a SMILES comes first, the peptide text is derived from it. [ ]: non-standard residue; d: D form. pT = C[C@@H](OP(=O)(O)O)[C@H](N)C(=O)O
Experiments:
Peptide solubility = type: physicochemical; conditions: 20 mM Hepes, pH 7.5, 100 mM NaCl, 1 mM TCEP, without DMSO
Experimental: Our ITC and sedimentation equilibrium experiments to measure the stoichiometry of the Mad1^CTD‐Bub1^CD1 interaction were performed with concentrations of Mad1 at 100 µM or lower, and titrating Bub1 until a twofold‐fourfold molar excess was obtained. However, our ^31P NMR experiments were conducted with around 0.25 to 0.5 mM of each, and still only one binding event was detected. […] DMSO interfered with ITC enthalpy changes and the NMR signal from DMSO obscured the protein peaks. In contrast, our Mad1^CTD‐Bub1^CD1 crystal structure was obtained through co‐crystallization of Mad1^CTD at a final concentration of 0.35 mM and Bub1^CD1 at 2.5 mM in 5% DMSO. The use of millimolar concentrations of peptide, and the presence of DMSO and isopropanol, required for Mad1^CTD‐Bub1^CD1 crystallization, may explain the association of a second peptide in the crystallized complex. […]
which are affected are already mapped out in Fig 5B, and this can be tracked across Bub1CD1 […]
We thank the reviewer for their positive and constructive comments.
1) On page 2, the first line of the third paragraph, Msp1 should be Mps1.
Response: Thank you, we have corrected this error.
2) Please provide a figure to show the omit map (2Fo−Fc map) for the BUB1 CD1 peptide.
Response: We have created a 2Fo-Fc omit map and included it in Fig EV2D and updated the figure legend accordingly. […]
2) p. 5, near bottom. The authors state that the singly phosphorylated Bub1 peptide (on Thr-461) is less soluble than the double phosphorylated peptide (also phosphorylated on Ser-459), which may explain previous reports that P-Ser-459 contributes to binding Mad1-CTD. It would be helpful if the authors could quantify this reduced solubility.
Response: We realise that our comment on the reduced solubility of the singly phosphorylated pT461 peptide is likely confusing, so we have removed this comment.
In terms of quantifying the reduced solubility, we observed an approximately 2-fold reduction of the solubility of the singly phosphorylated peptide. […]

Mad1^CTD = conditions: ref Ji et al, 2017b, Zhang et al, cited from earlier work
Excerpt: Formation of the Bub1‐Mad1 complex at kinetochores is dependent on phosphorylation of Bub1, a targeting mechanism conserved from yeast to humans (Heinrich et al, [2014]; London & Biggins, [2014a]; Silió et al, [2015]). In S. cerevisiae, phosphorylation of Bub1 at Thr453 and Thr455 by Mps1 promotes an interaction with Mad1^CTD, with pThr455 alone being sufficient for this interaction (London & Biggins, [2014a]; Ji et al, [2017b]). […] This is explained by our structure because a bulky phosphate at Thr464 would clash with the Bub1^CD1 binding interface of Mad1. Therefore, phosphorylation at Thr464 could provide a means to negatively regulate the Bub1‐Mad1 interaction in response to checkpoint signals ... || (+ 1 further places)

Mad1CTD = test: Mad1-Cdc20 interaction; type: binding
Excerpt: Response: Thank you for pointing out this paper. We have now mentioned this observation in the text: bottom of page 10.
2-1) Have the authors analyzed if Mad1 can bind directly to Cdc20 and is this influenced by Bub1 CD1 as proposed in Ji et al 2017? This would have important implications for understanding SAC signaling also in light of the two recent Science papers on this topic.
Response: We have not carefully analysed the Mad1-Cdc20 interaction. We have replicated […]
blotting) to Mad1CTD (data not shown).
2-2) The authors are focused on the model that Bub1 positions Cdc20 close to Mad1 but this model is not consistently supported by the literature (see for example: Di Fiore Dev Cell 2016 where a Cdc20 mutant unable to bind ABBA motifs still loads Mad2 and Zhang et al 2019, PMID: 30782962 where Bub1 without an ABBA motif still supports a robust […]
Response: Thank you for pointing this out. We agree that we predominately focused on the model that the Bub1 ABBA/KEN motifs position Cdc20 close to Mad1, and that we should have stated more clearly that this model is still debated.
Two changes to the text were made:
1) In the Introduction (page 2) where we had previously already discussed how this model is debated, we added the (Zhang et al, 2019) reference. […]
4) In figure 5A could the authors indicates the peaks they want the readers to focus on that are also discussed in the text. […]

[1] = target: T1, human Mad1^CTD (WT) homodimer (Homo sapiens, UniProt Q9Y6D9); test: ITC of Bub1^CD1 peptides binding to wild-type Mad1^CTD; conditions: N‐terminal tryptophan peptide
T1 construct: human Mad1^CTD homodimer (residues 597–718); double Strep His6-tag with TEV site (N, cleaved yes); made in house; host or cells: E. coli Rosetta 2 (DE3)
T1 sequence (Q9Y6D9 597-718): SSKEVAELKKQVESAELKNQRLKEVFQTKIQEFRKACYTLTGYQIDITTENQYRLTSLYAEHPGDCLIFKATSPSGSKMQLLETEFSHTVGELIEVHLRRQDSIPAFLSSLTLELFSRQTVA
Excerpt: The coding region of Mad1^597–719 was cloned by USER® (NEB) into a modified pRSFDuet‐1 vector (71341‐3, Sigma‐Aldrich) with an N‐terminal double Strep His6‐tag, followed by a tobacco etch virus (TEV) protease cleavage site (Demple & Linn, [1982]; Bitinaite et al, [1992]). Mad1 mutants were generated using the QuikChange™ Lightning Site‐Directed Mutagenesis Kit (Agilent), developed by Stratagene Inc. (La Jolla, CA) (Nøhr & Kristiansen, [2003]). Mad1 constructs were transformed into Rosetta™ 2 (DE3) Singles™ Competent Cells (71400, Novagen) for expression. Expression was induced with 0.5 mM IPTG and grown overnight at 18°C. Cells were lysed in 25 mM HEPES pH 8.1, 250 mM NaCl, 2 mM DTT, 5% glycerol, 2 mM EDTA supplemented with lysozyme, and Complete™ EDTA‐free protease inhibitors (Roche). Proteins were purified over a Strep‐Tactin Superflow Plus column (QIAGEN) and cleaved with TEV protease overnight at 4°C. The cleaved Mad1^CTD was then diluted to 50 mM NaCl, purified over an anion exchange (Resource Q, GE Healthcare) column, followed by size exclusion chromatography using a Superdex 75 Increase column (GE Healthcare). Mad1^CTD was concentrated to 35 mg/ml in a buffer of 20 mM HEPES pH 7.5, 100 mM NaCl and 1 mM TCEP.
Bub1^CD1 peptides were ordered from Designer Bioscience UK, at 95% purity. The full peptide sequence used in this study was (W)KVQP{pS}P{pT}VHTKEALGFIMNMFQAPTS. (W) = peptide with an additional N‐terminal tryptophan was used to confirm peptide concentration in stoichiometry studies.
Isothermal titration calorimetry (ITC) was performed using an Auto‐iTC200 instrument (Malvern Instruments, Malvern, UK) at 20°C. Mad1^CTD and Bub1^CD1 peptide mutants were dialysed into 20 mM HEPES pH 7.5, 100 mM NaCl, 1 mM TCEP. For each titration between 30–100 µM of Mad1 was pipetted into the calorimeter cell. The Bub1^CD1 peptides at 0.3–1.5 mM were titrated into the cell consisting of one 0.5 µl injection followed by 19 injections of 2 µl each. The changes in the heat released were integrated over the entire titration and fitted to a single‐site binding model using the MicroCal PEAQ‐ITC Analysis Software 1.0.0.1258 (Malvern Instruments). Titrations were performed in triplicate. Calculations for stoichiometry were based on the molar concentrations of dimeric Mad1^CTD.

CC[C@H](C)[C@H](NC(=O)[C@H](Cc1ccccc1)NC(=O)CNC(=O)[C@H](CC(C)C)NC(=O)[C@H](C)NC(=O)[C@H](CCC(=O)O)NC(=O)[C@H](CCCCN)NC(=O)[C@@H](NC(=O)[C@H](Cc1c[nH]cn1)NC(=O)[C@@H](NC(=O)[C@@H](NC(=O)[C@@H]1CCCN1C(=O)[C@H](CO)NC(=O)[C@@H]1CCCN1C(=O)[C@H](CCC(N)=O)NC(=O)[C@@H](NC(=O)[C@@H](N)CCCCN)C(C)C)[C@@H](C)OP(=O)(O)O)C(C)C)[C@@H](C)O)C(=O)N[C@@H](CCSC)C(=O)N[C@@H](CC(N)=O)C(=O)N[C@@H](CCSC)C(=O)N[C@@H](Cc1ccccc1)C(=O)N[C@@H](CCC(N)=O)C(=O)N[C@@H](C)C(=O)N1CCC[C@H]1C(=O)N[C@H](C(=O)N[C@@H](CO)C(=O)O)[C@@H](C)O [SpT* CD1] (H-KVQPSP[pT]VHTKEALGFIMNMFQAPTS-OH; N-terminus and C-terminus assumed)
reduction of solubility versus doubly phosphorylated peptide (Peptide solubility): approximately 2 fold
solubility (Peptide solubility): about 0.7 mM
Mad1 binding reported previously, in words (Mad1^CTD; listed as pThr461): sufficient to promote a strong Bub1‐Mad1 interaction
Mad1 binding reported previously, in words (Mad1^CTD; listed as singly phosphorylated pThr461 peptide): significant reduction in binding

phosphorylated Bub1-Bub3: phosphorylated Bub1-Bub3 complex
effect on the Mad1-Cdc20 interaction, in words (Mad1CTD): does not detectably enhance the Mad1-Cdc20 interaction

(W)KVQP{pS}P{pT}VHTKEALGFIMNMFQAPTS [peptide with an additional N‐terminal tryptophan was used to confirm peptide concentration in stoichiometry studies]
KD and stoichiometry compared with peptide lacking N-terminal Trp [1]: The same KD and stoichiometry

Reference: article PMC8391104, “Molecular mechanism of Mad1 kinetochore targeting by phosphorylated Bub1” (EMBO Reports, 2021)
